Reference: patent publication US6215002A, “Pyrrolopyrrolone derivatives as inhibitors of neutrophil elastase” (priority 1996, dated 2001)
Counter-ions that a name gives are not always drawn.

Target: T1, human neutrophil elastase (Homo sapiens, UniProt P08246)
T1 sequence (P08246 30-267): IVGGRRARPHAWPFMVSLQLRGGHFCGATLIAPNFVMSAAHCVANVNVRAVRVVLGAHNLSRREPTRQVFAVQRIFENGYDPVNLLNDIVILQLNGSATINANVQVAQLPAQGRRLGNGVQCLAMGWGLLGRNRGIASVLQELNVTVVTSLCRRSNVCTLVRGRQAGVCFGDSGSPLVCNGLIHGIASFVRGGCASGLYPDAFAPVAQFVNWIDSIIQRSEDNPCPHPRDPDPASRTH
Assay: In vitro assay of human neutrophil elastase (HNE)
Format: biochemical
Conditions: 118 nM purified human neutrophil elastase, pH 8.6, 15 min incubation at 30° C., MeO-succinyl-alanyl-alanyl-prolyl-valyl-p-nitroanilide substrate; read-out: HNE IC50
Procedure: In Vitro Assays of Human Neutrophil Elastase
118 nM purified human neutrophil elastase
Suitable concentrations of compound under test diluted with water from a 10 mM stock solution in dimethylsulphoxide. Values above are final concentrations after the addition of substrate solution (see below).
The mixture above is incubated for fifteen minutes at 30° C. at which time the remaining elastase activity is measured for 10 minutes in a BioTek 340i plate-reader, after the addition of 0.6 mM MeO-succinyl-alanyl-alanyl-prolyl-valyl-p-nitroanilide. The rate of increase in absorbance at 405 nm is proportional to elastase activity. Enzyme activity is plotted against concentration of inhibitor and an IC50 determined using curve fitting software.
1. The compounds were tested in the in vitro elastase test described earlier in the description.

IC50 [µM]	Structure (SMILES)
0.036	C=CC[C@H]1C(=O)N(S(=O)(=O)c2ccc3ccccc3c2)[C@H]2CCN(C(=O)OCc3ccccc3)[C@H]12 (relative stereo) [Example 1, rel-(3aS,6R,6aR)-6-Allyl-4-(naphthalene-2-sulfonyl)-5-oxo-hexahydro-pyrrolo[3,2-b]pyrrole-1-carboxylic acid benzyl ester]
0.205	CCC[C@H]1C(=O)N(S(=O)(=O)c2ccc3ccccc3c2)[C@H]2CCN(C(=O)CN3CCCCC3)[C@H]12 (relative stereo) [Example 3, rel-(3R,3aR,6aS)-1-(Naphthalene-2-sulfonyl)-4-(2-piperidin-1-yl-acetyl)-3-propyl-hexahydro-pyrrolo[3,2-b]pyrrol-2-one]
0.134	CC[C@H]1C(=O)N(S(=O)(=O)c2ccc3ccccc3c2)[C@H]2CCN(C(=O)OCc3ccccc3)[C@H]12 (relative stereo) [Example 4, rel-(3aS,6R,6aR)-6-Ethyl-4-(naphthalene-2-sulfonyl)-5-oxo-hexahydro-pyrrolo[3,2-b]pyrrole-1-carboxylic acid benzyl ester]
0.205	CC[C@H]1C(=O)N(S(=O)(=O)c2ccc3ccccc3c2)[C@H]2CCN(C(=O)CCN3CCCCC3)[C@H]12 (relative stereo) [Example 5, rel-(3R,3aR,6aS)-3-Ethyl-1-(naphthalene-2-sulfonyl)-4-(3-piperidin-1-yl-propionyl)-hexahydro-pyrrolo[3,2-b]pyrrol-2-one hydrochloride]
0.07	C=CC[C@H]1C(=O)N(S(C)(=O)=O)[C@H]2CCN(C(=O)OCc3ccccc3)[C@H]12 (relative stereo) [Example 6, rel-(3aS,6R,6aR)-6-Allyl-4-methanesulfonyl-5-oxo-hexahydro-pyrrolo[3,2-b]pyrrole-1-carboxylic acid benzyl ester]
0.134	CCC[C@H]1C(=O)N(S(C)(=O)=O)[C@H]2CCN(S(=O)(=O)c3cn(C)cn3)[C@H]12 (relative stereo) [Example 7, rel-(3R,3aR,6aS)-1-Methanesulfonyl-4-(1-methyl-1H-imidazole-4-sulfonyl)-3-propyl-hexahydro-pyrrolo[3,2-b]pyrrol-2-one]
0.029	CCC[C@H]1C(=O)N(S(C)(=O)=O)[C@H]2CCN(S(=O)(=O)CCCN3CCOCC3)[C@H]12 (relative stereo) [Example 8, rel-(3R,3aR,6aS)-1-Methanesulfonyl-4-(3-morpholin-4-yl-propane-1-sulfonyl)-3-propyl-hexahydro-pyrrolo[3,2-b]pyrrol-2-one]
0.054	CCC[C@H]1C(=O)N(S(C)(=O)=O)[C@H]2CCN(S(=O)(=O)CCCN3CCCCC3)[C@H]12 (relative stereo) [Example 9, rel-(3R,3aR,6aS)-1-Methanesulfonyl-4-(3-piperidin-1-yl-propane-1-sulfonyl)-3-propyl-hexahydro-pyrrolo[3,2-b]pyrrol-2-one]
0.039	CCC[C@H]1C(=O)N(S(C)(=O)=O)[C@H]2CCN(S(=O)(=O)CCCN3CCN(C)CC3)[C@H]12 (relative stereo) [Example 10, rel-(3R,3aR,6aS)-1-Methanesulfonyl-4-[3-(4-methyl-piperazin-1-yl)-propane-1-sulfonyl]3-propyl-hexahydro-pyrrolo[3,2-b]pyrrol-2-one dihydrochloride]
0.111	CCC[C@H]1C(=O)N(S(=O)(=O)c2ccc3ccccc3c2)[C@H]2CCN(S(=O)(=O)CCCCN3CCOCC3)[C@H]12 (relative stereo) [Example 11, rel-(3R,3aR,6aS)-4-(4-Morpholin-4-yl-butane-1-sulfonyl)-1-(naphthalene-2-sulfonyl)-3-propyl-hexahydro-pyrrolo[3,2-b]pyrrol-2-one]
0.06	CCC[C@H]1C(=O)N(S(=O)(=O)c2ccc3ccccc3c2)[C@H]2CCN(S(=O)(=O)CCCN3CCOCC3)[C@H]12 (relative stereo) [Example 12, rel-(3R,3aR,6aS)-4-(3-Morpholin-4-yl-propane-1-sulfonyl)-1-(naphthalene-2-sulfonyl)-3-propyl-hexahydro-pyrrolo[3,2-b]pyrrol-2-one]
0.543	CCC[C@H]1C(=O)N(S(=O)(=O)c2ccc3ccccc3c2)[C@H]2CCN(S(=O)(=O)CCCN3CCCCC3)[C@H]12 (relative stereo) [Example 13, rel-(3R,3aR,6aS)-1-(Naphthalene-2-sulfonyl)-(3-piperidin-1-yl-propane-1-sulfonyl)-3-propyl-hexahydro-pyrrolo[3,2-b]pyrrol-2-one]
0.193	CCC[C@H]1C(=O)N(S(=O)(=O)c2ccc3ccccc3c2)[C@H]2CCN(S(=O)(=O)CCCN3CCN(C)CC3)[C@H]12 (relative stereo) [Example 14, rel-(3R,3aR,6aS)-4-[3-(4-Methyl-piperazin-1-yl)-propane-1-sulfonyl-1-(naphthalene-2-sulfonyl)-3-propyl-hexahydro-pyrrolo[3,2-b]pyrrol-2-one]
0.01	C=CC[C@H]1C(=O)N(S(=O)(=O)c2cccc3ccccc23)[C@H]2CCN(C(=O)OCc3ccccc3)[C@H]12 (relative stereo) [Example 15, rel-(3sS,6R,6aR)-6-Allyl-4-(naphthalene-1-sulfonyl)-5-oxo-hexahydro-pyrrolo[3,2-b]pyrrole-1-carboxylic acid benzyl ester]
0.267	CCC[C@H]1C(=O)N(S(=O)(=O)c2cccc3ccccc23)[C@H]2CCN(C(=O)C3CCN(C(=O)OC(C)(C)C)CC3)[C@H]12 (relative stereo) [Example 16, rel-(3aS,6R,6aR)-4-[4-(Naphthalene-1-sulfonyl)-5-oxo-6-propyl-hexahydro-pyrrolo[3,2-b]pyrrole-1-carbonyl-carbonyl]-piperidine-1-carboxylic acid tert-butyl]
0.342	CCC[C@H]1C(=O)N(S(=O)(=O)c2cccc3ccccc23)[C@H]2CCN(C(=O)C3CCNCC3)[C@H]12 (relative stereo) [Example 17, trifluoroacetate]
0.069	C=CC[C@H]1C(=O)N(S(=O)(=O)c2cccc3c(N(C)C)cccc23)[C@H]2CCN(C(=O)OCc3ccccc3)[C@H]12 (relative stereo) [Example 18, rel-(3aS,6R,6aR)-6-Allyl-4-(5-dimethylamino-naphthalene-1-sulfonyl)-5-oxo-hexahydro-pyrrolo[3,2-b]pyrrole-1-carboxylic acid benzyl ester]
0.057	C=CC[C@H]1C(=O)N(S(=O)(=O)c2ccc3c(c2)CCCC3)[C@H]2CCN(C(=O)OCc3ccccc3)[C@H]12 (relative stereo) [Example 20, rel-(3aS,6R,6aR)-6-Allyl-5-oxo-4-(5,6,7,8-tetrahydro-naphthalene-2-sulfonyl)-hexahydro-pyrrolo[3,2-b]pyrrole-1-carboxylic acid benzyl ester]
0.491	C=CC[C@H]1C(=O)N(S(=O)(=O)Cc2ccccc2)[C@H]2CCN(C(=O)OCc3ccccc3)[C@H]12 (relative stereo) [Example 21, rel-3aS,6R,6aR)-6-Allyl-5-oxo-4-phenylmethanesylfonyl-hexahydro-pyrrolo[3,2-b]pyrrole-1-carboxylic acid benzyl ester]
0.06	CCC[C@H]1C(=O)N(S(=O)(=O)c2ccc3ccccc3c2)[C@H]2CCN(S(C)(=O)=O)[C@H]12 (relative stereo) [Example 22, rel-(3R,3aR,6aS)-4-Methanesulfonyl-1-(naphthalene-2-sulfonyl)-3-propyl-hexahydro-pyrrolo[3,2-b]pyrrol-2-one]
0.075	CCC[C@H]1C(=O)N(S(=O)(=O)c2ccc3ccccc3c2)[C@H]2CCN(S(=O)(=O)Cc3cccc(-c4nnn[nH]4)c3)[C@H]12 (relative stereo) [Example 23, rel-(3R,3aR,6aS)-1(Naphthalene-2-sulfonyl)-3-propyl-4-[3-(1H-tetrazol-5-yl)-phenylmethanesulfonyl]-hexahydro-pyrrolo[3,2-b]pyrrole-2-one]
0.009	CCC[C@H]1C(=O)N(S(=O)(=O)c2ccc3ccccc3c2)[C@H]2CCN(C(C)=O)[C@H]12 (relative stereo) [Example 24, rel-(3R,3aR,6aS)-4-Acetyl-1-(naphthalene-2-sulfonyl)-3-propyl-hexahydro-pyrrolo[3,2-b][pyrrol-2-one]
0.059	CCC[C@H]1C(=O)N(S(=O)(=O)c2ccc3ccccc3c2)[C@H]2CCN(C(=O)CCCN(C)C)[C@H]12 (relative stereo) [Example 25, rel-(3R,3aR,6aS)-4-(4-Dimethylamino-butyryl)-1-(naphthalene-2-sulfonyl)-3-propyl-hexahydro-pyrrolo[3,2-b]-pyrrol-2-one]
0.02	CCC[C@H]1C(=O)N(S(C)(=O)=O)[C@H]2CCN(S(C)(=O)=O)[C@H]12 (relative stereo) [Example 26, rel-(3R,3aR,6aS)-1,4-Bis-methanesulfonyl-3-propyl-hexahydro-pyrrolo[3,2-b]pyrrol-2-one]
0.055	CCC[C@H]1C(=O)N(S(C)(=O)=O)[C@H]2CCN(S(=O)(=O)Cc3cccc(-c4nnn[nH]4)c3)[C@H]12 (relative stereo) [Example 27, rel-(3R,3aR,6aS)-1-Methanesulfonyl-3-propyl-4-[3-(1H-tetrazol-5-yl)-phenylmethanesulfonyl]-hexahydro-pyrrolo[3,2-b]pyrrol-2-one]
0.064	CCC[C@H]1C(=O)N(S(C)(=O)=O)[C@H]2CCN(C(C)=O)[C@H]12 (relative stereo) [Example 28, rel-(3R,3aR,6aS)-4-Acetyl-1-methanesulfonyl-3-propyl-hexahydro-pyrrolo[3,2-b]pyrrol-2-one]
